One assay deals with CMY-10 (Klebsiella aerogenes, UniProt Q99QC1). Nature of the assay: nitrocefin hydrolysis assay at […] inhibitor. The format is biochemical. The note with it: read-out: % inhibition at 200 μM.
A further assay addresses AmpC BER (Escherichia coli, UniProt A7TUE6). Nature of the assay: nitrocefin hydrolysis steady-state kinetics, Lineweaver-Burk. The format is biochemical.

A word on the inhibition: it is the relative decrease from the control value, in per cent. The term Ki denotes a measure of affinity in units of concentration, obtained from inhibition or displacement.

Chain of AmpC BER (A7TUE6 20-379): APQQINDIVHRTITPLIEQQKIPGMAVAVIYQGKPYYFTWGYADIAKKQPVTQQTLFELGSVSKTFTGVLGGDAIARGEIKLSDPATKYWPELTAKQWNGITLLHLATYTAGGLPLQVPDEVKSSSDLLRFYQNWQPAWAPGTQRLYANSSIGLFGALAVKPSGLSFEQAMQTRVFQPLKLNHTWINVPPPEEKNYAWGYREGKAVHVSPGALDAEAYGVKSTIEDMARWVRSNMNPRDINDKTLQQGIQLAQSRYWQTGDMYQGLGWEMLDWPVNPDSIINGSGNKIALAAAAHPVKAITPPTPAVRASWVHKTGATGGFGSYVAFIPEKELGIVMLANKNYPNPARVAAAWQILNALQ
Chain of CMY-10 (Q99QC1 24-382): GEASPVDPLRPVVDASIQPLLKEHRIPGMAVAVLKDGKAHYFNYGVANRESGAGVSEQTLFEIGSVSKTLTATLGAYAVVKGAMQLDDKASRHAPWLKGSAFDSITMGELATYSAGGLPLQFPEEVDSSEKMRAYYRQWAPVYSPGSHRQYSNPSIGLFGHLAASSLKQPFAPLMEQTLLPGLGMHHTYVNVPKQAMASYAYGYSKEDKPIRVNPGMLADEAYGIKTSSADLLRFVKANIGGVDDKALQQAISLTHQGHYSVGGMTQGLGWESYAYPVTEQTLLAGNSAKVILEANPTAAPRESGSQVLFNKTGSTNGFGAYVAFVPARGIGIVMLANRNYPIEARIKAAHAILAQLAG

For `C=C1CCC[C@@H]2[C@@](C)(CCC(CCCc3ccoc3)COS(=O)(=O)O)[C@H](C)CC[C@]12C` (some centres unmarked) [Hali 5, halisulfate 5], the inhibition at 200 µM on CMY-10 is about 90%. Moreover, the Ki on AmpC BER stood at 5.87 µM.

The record behind these values is article PMC7773887 (Computational and Structural Biotechnology Journal, 2020).
